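Tested at 5 concentrations; 48 h exposure; 96-well plates; endpoints linearly interpolated, else capped at highest concentration. GI50 = concentration required for 50% inhibition of growth.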 Calls of active or inactive are those of the source. Rule as the data show it: active = GI50 up to about 1.1 µM and inactive = higher.
Experiments:
Experiment in all cases: inhibition of tumour cell growth, NCI panel, 48 h
ACHN = system: ACHN
COLO 205 = system: COLO 205
DU-145 = system: DU-145
HCT-15 = system: HCT-15
HL-60 = system: HL-60
HOP-62 = system: HOP-62
HT-29 = system: HT-29
LOX IMVI = system: LOX IMVI
MCF7 = system: MCF7
MDA-MB-231 = system: MDA-MB-231
NCI-H23 = system: NCI-H23
NCI/ADR-RES = system: NCI/ADR-RES
OVCAR-3 = system: OVCAR-3
PC-3 = system: PC-3
RXF 393 = system: RXF 393
SF-539 = system: SF-539
SK-MEL-28 = system: SK-MEL-28
SK-MEL-5 = system: SK-MEL-5
SNB-75 = system: SNB-75
UO-31 = system: UO-31

Compound | GI50 (ACHN) | GI50 (COLO 205) | GI50 (DU-145) | GI50 (HCT-15) [µM] | GI50 (HL-60) | GI50 (HOP-62) | GI50 (HT-29) | GI50 (LOX IMVI) | GI50 (MCF7) | GI50 (MDA-MB-231) | GI50 (NCI-H23) | GI50 (NCI/ADR-RES) | GI50 (OVCAR-3) | GI50 (PC-3) | GI50 (RXF 393) | GI50 (SF-539) | GI50 (SK-MEL-28) | GI50 (SK-MEL-5) | GI50 (SNB-75) | GI50 (UO-31)
CSS(C)(=O)=O | 26.2 µM (inactive) | 1.95 µM (inactive) | 21.5 µM (inactive) | 24.9 | 24.9 µM (inactive) | 44.2 µM (inactive) | 31 µM (inactive) | 60.1 µM (inactive) | 26.7 µM (inactive) | 30.8 µM (inactive) | 19.9 µM (inactive) | 58.9 µM (inactive) | 16.7 µM (inactive) | 18 µM (inactive) | 26.5 µM (inactive) | 20.4 µM (inactive) | 21.6 µM (inactive) | 61.5 µM (inactive) | 32.3 µM (inactive) | 24.5 µM (inactive)
CSC1(SC2=NCCN2)SC2(NCCN2)S1 | 19 µM (inactive) | 21.3 µM (inactive) | 14.8 µM (inactive) | 17.7 | 21 µM (inactive) | 17.5 µM (inactive) | 18.7 µM (inactive) | 10.5 µM (inactive) | 3.18 µM (inactive) | 21.1 µM (inactive) | 16.3 µM (inactive) | 31.8 µM (inactive) | 15.8 µM (inactive) | 18.5 µM (inactive) | 7.53 µM (inactive) | 16.7 µM (inactive) | 20.2 µM (inactive) | 18.9 µM (inactive) | 17.3 µM (inactive) | 17.3 µM (inactive)
Nc1nc(N)nc(CC(=O)O)n1 | > 100 µM (inactive) | > 100 µM (inactive) | > 100 µM (inactive) | > 100 | > 100 µM (inactive) | > 100 µM (inactive) | > 100 µM (inactive) | > 100 µM (inactive) | > 100 µM (inactive) | > 100 µM (inactive) | > 100 µM (inactive) | > 100 µM (inactive) | > 100 µM (inactive) | > 100 µM (inactive) | > 100 µM (inactive) | > 100 µM (inactive) | > 100 µM (inactive) | > 100 µM (inactive) | > 100 µM (inactive) | > 100 µM (inactive)
C=CC(C)CCC(C/C=C(\C)CCCC(C)C)C(=C)CCCC(C)C (centres undefined) | > 100 µM (inactive) | > 100 µM (inactive) | > 100 µM (inactive) | > 100 | > 100 µM (inactive) | > 100 µM (inactive) | – | > 100 µM (inactive) | > 100 µM (inactive) | > 100 µM (inactive) | > 100 µM (inactive) | > 100 µM (inactive) | > 100 µM (inactive) | > 100 µM (inactive) | > 100 µM (inactive) | > 100 µM (inactive) | > 100 µM (inactive) | > 100 µM (inactive) | > 100 µM (inactive) | > 100 µM (inactive)
CCOC(=O)c1c(-c2ccc(OC)cc2)c(C#N)c(=S)n(C2OC(COC(C)=O)C(OC(C)=O)C(OC(C)=O)C2OC(C)=O)c1C (centres undefined) | 58.2 µM (inactive) | > 100 µM (inactive) | > 100 µM (inactive) | > 100 | 75.7 µM (inactive) | > 100 µM (inactive) | > 100 µM (inactive) | > 100 µM (inactive) | > 100 µM (inactive) | > 100 µM (inactive) | > 100 µM (inactive) | > 100 µM (inactive) | 31.5 µM (inactive) | 30.8 µM (inactive) | > 100 µM (inactive) | > 100 µM (inactive) | > 100 µM (inactive) | > 100 µM (inactive) | 12.7 µM (inactive) | 1.46 µM (inactive)
CC(=O)OC1C(O)COC(O[C@H]2CC[C@]34C[C@]35CC[C@]3(C)C([C@@]6(C)CC[C@@H](C(C)(C)O)O6)[C@@H](O)C[C@@]3(C)C5C[C@H](OC3OCC(O)C(O)C3O)[C@H]4C2(C)C)C1OC1OCC(O)C(O)C1O (some centres undefined) | > 100 µM (inactive) | > 100 µM (inactive) | > 100 µM (inactive) | > 100 | 11.6 µM (inactive) | > 100 µM (inactive) | > 100 µM (inactive) | > 100 µM (inactive) | > 100 µM (inactive) | > 100 µM (inactive) | > 100 µM (inactive) | > 100 µM (inactive) | > 100 µM (inactive) | > 100 µM (inactive) | > 86.3 µM (inactive) | > 100 µM (inactive) | > 100 µM (inactive) | > 100 µM (inactive) | > 100 µM (inactive) | > 100 µM (inactive)
COC(=O)CNS(=O)(=O)c1ccc(-c2c3nc(c(-c4ccc(S(=O)(=O)NCC(=O)OC)cc4)c4ccc([nH]4)c(-c4ccc(S(=O)(=O)NCC(=O)OC)cc4)c4nc(c(-c5ccc(S(=O)(=O)NCC(=O)OC)cc5)c5ccc2[nH]5)C=C4)C=C3)cc1 | > 100 µM (inactive) | > 100 µM (inactive) | > 100 µM (inactive) | > 100 | > 100 µM (inactive) | > 100 µM (inactive) | > 100 µM (inactive) | > 100 µM (inactive) | > 100 µM (inactive) | 42.2 µM (inactive) | > 100 µM (inactive) | > 100 µM (inactive) | > 100 µM (inactive) | > 100 µM (inactive) | > 100 µM (inactive) | > 100 µM (inactive) | > 100 µM (inactive) | > 100 µM (inactive) | > 100 µM (inactive) | > 100 µM (inactive)
COc1ccc(C(SCCO)(c2ccccc2)c2ccc(OC)cc2)cc1 | 16 µM (inactive) | 17.9 µM (inactive) | 15.5 µM (inactive) | 13.5 | 21.3 µM (inactive) | 15.8 µM (inactive) | 13.9 µM (inactive) | 16.5 µM (inactive) | 5.36 µM (inactive) | 9.64 µM (inactive) | 18.7 µM (inactive) | 15.9 µM (inactive) | 16.3 µM (inactive) | 14.5 µM (inactive) | 8.24 µM (inactive) | 14.7 µM (inactive) | 16.3 µM (inactive) | 8 µM (inactive) | 4.58 µM (inactive) | 17.6 µM (inactive)
COc1ccc2nc3c([N+](=O)[O-])ccc(NCCN(C)C)c3c(N)c2c1 | 1.09 µM (active) | 0.859 µM (active) | 1.75 µM (inactive) | 1.16 | 0.194 µM (active) | 1.66 µM (inactive) | 0.508 µM (active) | 0.537 µM (active) | 0.513 µM (active) | 0.234 µM (active) | 1.69 µM (inactive) | 0.847 µM (active) | 0.562 µM (active) | 1.46 µM (inactive) | 1.57 µM (inactive) | 1.56 µM (inactive) | 2.14 µM (inactive) | 1.81 µM (inactive) | 1.08 µM (active) | 1.35 µM (inactive)
O=C1/C(=C\c2cccc(Oc3ccccc3)c2)SC(c2ccccc2)N1c1cc(Cl)ccc1Cl (centres undefined) | 43.7 µM (inactive) | 53.5 µM (inactive) | 36 µM (inactive) | 35.2 | 15.1 µM (inactive) | 56.5 µM (inactive) | 30.8 µM (inactive) | 16.8 µM (inactive) | 25.9 µM (inactive) | 32.4 µM (inactive) | 33.4 µM (inactive) | 42.6 µM (inactive) | 24.8 µM (inactive) | 52.4 µM (inactive) | 22.8 µM (inactive) | 24.3 µM (inactive) | 37.1 µM (inactive) | 27 µM (inactive) | > 100 µM (inactive) | 37.2 µM (inactive)
COc1cc(OC)cc(Oc2nc3ccc(C(F)(F)F)cc3nc2-c2ccccc2)c1 | > 100 µM (inactive) | > 100 µM (inactive) | > 100 µM (inactive) | > 100 | > 100 µM (inactive) | > 100 µM (inactive) | 60 µM (inactive) | > 100 µM (inactive) | > 100 µM (inactive) | > 100 µM (inactive) | > 100 µM (inactive) | > 100 µM (inactive) | > 100 µM (inactive) | > 100 µM (inactive) | > 100 µM (inactive) | > 100 µM (inactive) | > 100 µM (inactive) | > 100 µM (inactive) | > 100 µM (inactive) | > 100 µM (inactive)
CN(c1ccc(Cl)cc1)S(=O)(=O)c1ccc([N+](=O)[O-])cc1 | > 100 µM (inactive) | > 100 µM (inactive) | > 100 µM (inactive) | > 100 | 59.4 µM (inactive) | > 100 µM (inactive) | > 100 µM (inactive) | > 100 µM (inactive) | > 100 µM (inactive) | > 100 µM (inactive) | > 100 µM (inactive) | > 100 µM (inactive) | > 100 µM (inactive) | > 100 µM (inactive) | > 100 µM (inactive) | > 100 µM (inactive) | > 100 µM (inactive) | 26 µM (inactive) | > 100 µM (inactive) | > 100 µM (inactive)
COc1ccc(N2C(=O)C(Cl)C2c2cc3cc(Br)ccc3nc2Cl)cc1 (centres undefined) | 4.89 µM (inactive) | 4.91 µM (inactive) | 7.46 µM (inactive) | 4.71 | 5.98 µM (inactive) | 6.44 µM (inactive) | 4.68 µM (inactive) | 0.838 µM (active) | 4.82 µM (inactive) | 4.57 µM (inactive) | 5.98 µM (inactive) | 5.41 µM (inactive) | 8.45 µM (inactive) | 7.13 µM (inactive) | 4.09 µM (inactive) | 5.07 µM (inactive) | 7.28 µM (inactive) | 4.37 µM (inactive) | 20.5 µM (inactive) | 0.701 µM (active)
CCCCCCCCCCCCOCCCOP(=O)([O-])OCC[N+](C)(C)C | 30.6 µM (inactive) | 6.75 µM (inactive) | 34.3 µM (inactive) | 25.6 | 7.21 µM (inactive) | 43.2 µM (inactive) | 17.3 µM (inactive) | 32.2 µM (inactive) | 45.2 µM (inactive) | 11.3 µM (inactive) | 67.6 µM (inactive) | > 81.1 µM (inactive) | 51.9 µM (inactive) | 2.18 µM (inactive) | 9.75 µM (inactive) | 31.2 µM (inactive) | 58.5 µM (inactive) | 48.6 µM (inactive) | 24.9 µM (inactive) | 49.4 µM (inactive)
